Where a name gives a salt, the structure may show the parent alone.
Molecular target: uremic plasma (Homo sapiens, UniProt P02768)
Test: Binding capacity of uremic plasma for IS at different NaCl concentrations
Format: in vitro ADME
Procedure: After having received approval from the competent institutional review board (ethics committee of the University Hospital Würzburg, code AZ 64/12), written informed consent was obtained from 15 end-stage renal disease patients on maintenance hemodialysis in a single dialysis center (Dialysis center, Elsenfeld, Germany). Blood (7.5 mL) was collected in EDTA-tubes from each patient before dialysis.

uremic plasma, sequence (P02768 25-609): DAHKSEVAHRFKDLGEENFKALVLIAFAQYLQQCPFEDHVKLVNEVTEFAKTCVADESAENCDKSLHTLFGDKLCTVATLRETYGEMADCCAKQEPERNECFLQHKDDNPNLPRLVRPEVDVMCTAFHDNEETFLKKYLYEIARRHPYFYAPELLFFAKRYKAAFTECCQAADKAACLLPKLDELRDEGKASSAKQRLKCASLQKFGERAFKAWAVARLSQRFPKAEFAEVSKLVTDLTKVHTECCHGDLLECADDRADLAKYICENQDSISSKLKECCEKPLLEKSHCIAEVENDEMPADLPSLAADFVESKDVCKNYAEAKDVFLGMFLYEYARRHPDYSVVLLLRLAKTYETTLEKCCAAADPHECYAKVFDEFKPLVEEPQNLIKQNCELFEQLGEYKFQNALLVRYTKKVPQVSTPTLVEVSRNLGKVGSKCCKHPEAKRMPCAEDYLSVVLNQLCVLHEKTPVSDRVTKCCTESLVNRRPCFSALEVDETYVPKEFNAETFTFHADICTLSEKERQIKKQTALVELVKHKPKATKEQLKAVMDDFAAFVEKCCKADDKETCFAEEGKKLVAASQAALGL

Cc1ccc(OS(=O)(=O)O)cc1 [p-cresyl sulfate]
protein bound fraction ([…] NaCl, uremic plasma 1:2 diluted, native toxin): 91% ± 2% | total (native) toxin concentration in uremic plasma (plasma of hemodialysis patients before dialysis): 90 ± 28 µM
